“And” between values parts separate entries of the source, which are not always exact repeats. Identical values can stand only once. One block for each molecule: values may come before it. The source made the active and inactive calls. The calls are words filed in the database; no cut-off is given here.
Columns and labels:
[1] = target: T1, Angiotensin-converting enzyme (Oryctolagus cuniculus) (UniProt P12822); assay: Time to inhibit maximum Angiotensin I converting enzyme in rabbit lung; format: functional, tissue-based
T1 sequence (whole entry): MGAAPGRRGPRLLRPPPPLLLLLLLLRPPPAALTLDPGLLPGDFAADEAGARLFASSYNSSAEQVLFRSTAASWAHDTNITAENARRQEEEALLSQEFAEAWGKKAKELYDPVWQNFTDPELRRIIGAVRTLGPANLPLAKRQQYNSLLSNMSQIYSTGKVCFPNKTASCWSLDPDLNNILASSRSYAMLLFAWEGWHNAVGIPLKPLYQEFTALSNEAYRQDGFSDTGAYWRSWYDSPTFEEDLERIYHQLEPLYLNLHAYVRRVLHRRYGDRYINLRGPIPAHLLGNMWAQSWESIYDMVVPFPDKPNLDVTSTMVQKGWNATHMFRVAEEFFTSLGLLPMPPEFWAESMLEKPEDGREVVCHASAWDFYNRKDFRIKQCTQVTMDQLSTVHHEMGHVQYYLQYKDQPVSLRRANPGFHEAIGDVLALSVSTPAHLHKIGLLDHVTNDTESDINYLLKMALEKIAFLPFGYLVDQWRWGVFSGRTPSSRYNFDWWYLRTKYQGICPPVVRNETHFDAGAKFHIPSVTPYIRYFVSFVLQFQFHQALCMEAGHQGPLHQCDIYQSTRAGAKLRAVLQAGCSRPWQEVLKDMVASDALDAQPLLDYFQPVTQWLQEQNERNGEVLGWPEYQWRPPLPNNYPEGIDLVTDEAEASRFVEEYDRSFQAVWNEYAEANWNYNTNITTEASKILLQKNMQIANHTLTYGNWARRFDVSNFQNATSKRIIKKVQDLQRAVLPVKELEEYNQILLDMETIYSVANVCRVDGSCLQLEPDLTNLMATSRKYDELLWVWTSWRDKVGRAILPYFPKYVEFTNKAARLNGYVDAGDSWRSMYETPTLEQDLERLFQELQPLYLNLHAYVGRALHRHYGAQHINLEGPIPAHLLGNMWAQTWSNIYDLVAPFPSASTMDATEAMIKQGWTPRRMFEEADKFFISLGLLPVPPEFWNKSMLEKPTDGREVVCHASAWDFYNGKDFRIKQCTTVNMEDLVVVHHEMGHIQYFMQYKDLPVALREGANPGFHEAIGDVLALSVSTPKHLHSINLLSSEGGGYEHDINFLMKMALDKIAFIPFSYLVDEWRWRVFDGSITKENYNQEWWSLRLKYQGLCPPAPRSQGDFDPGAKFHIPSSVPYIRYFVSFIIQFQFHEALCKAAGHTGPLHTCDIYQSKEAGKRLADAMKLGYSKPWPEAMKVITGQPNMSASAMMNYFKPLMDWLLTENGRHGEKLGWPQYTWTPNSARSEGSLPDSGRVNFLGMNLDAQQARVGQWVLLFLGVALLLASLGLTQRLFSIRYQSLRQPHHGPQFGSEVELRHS

[2] = target: T1, Angiotensin-converting enzyme (Oryctolagus cuniculus); assay: In vivo inhibition of Angiotensin I converting enzyme in rabbit lung after (iv) administration of a dose of 1.0(mg/kg); format: organism-based
[3] = target: T2, Angiotensin-converting enzyme (Oryctolagus cuniculus, UniProt P12822); assay: In vitro inhibition of Angiotensin I converting enzyme in rabbit lung; format: tissue-based
T2 sequence (P12822 whole entry): T1 sequence (whole entry)

[4] = target: T1, Angiotensin-converting enzyme (Oryctolagus cuniculus); assay: In vivo inhibition of Angiotensin I converting enzyme in rabbit lung at the dose of 10(mg/kg), po; format: organism-based
[5] = target: T1, Angiotensin-converting enzyme (Oryctolagus cuniculus); assay: Time during which Angiotensin I converting enzyme inhibition is greater than or equa to 30% in rabbit lung
[6] = test system: Angiotensin-converting enzyme (Sus scrofa); assay: Time to inhibit maximum Angiotensin I converting enzyme in Hog plasma
[7] = test system: Angiotensin-converting enzyme (Sus scrofa); assay: Time during which ACE inhibition is greater than or equal to 30% in Hog plasma
[8] = target: T1, Angiotensin-converting enzyme (Oryctolagus cuniculus); assay: Time to inhibit maximum angiotensin I converting enzyme in rabbit lung; format: functional, tissue-based
[9] = target: T1, Angiotensin-converting enzyme (Oryctolagus cuniculus); assay: Time to maximum inhibition of angiotensin I converting enzyme in rabbit lung; format: functional, tissue-based
[10] = target: T2, Angiotensin-converting enzyme; assay: In vitro inhibition of angiotensin I converting enzyme (ACE) in rabbit lung; format: tissue-based
[11] = target: T1, Angiotensin-converting enzyme (Oryctolagus cuniculus); assay: In vivo inhibition of angiotensin I converting enzyme(ACE) in rabbit lung at the dose of 10(mg/kg), po; format: organism-based
[12] = test system: Rattus norvegicus; assay: Percent change in K+ in fasted rats at the dose of 100 mg/kg (iv), 0-5 h; NA=Inactive; format: functional, organism-based; set-up: dose 100 mg/kg
[13] = test system: Rattus norvegicus; assay: Percent change in K+ in fasted rats at the dose of 100 mg/kg (po), 0-5 h; format: functional
[14] = test system: Rattus norvegicus; assay: Percent change in K+ in fasted rats at the dose of 100 mg/kg (po), 5-24 h; format: functional
[15] = test system: Rattus norvegicus; assay: Percent change in Na+in fasted rats at the dose of 100 mg/kg (po), 0-5 h; format: functional
[16] = test system: Rattus norvegicus; assay: Percent change in Na+in fasted rats at the dose of 100 mg/kg (po), 5-24 h; format: functional
[17] = test system: Rattus norvegicus; assay: Percent change in urinary volume in fasted rats at the dose of 100 mg/kg (po), 0-5 h; format: functional, Urine
[18] = test system: Rattus norvegicus; assay: Percent change in urinary volume in fasted rats at the dose of 100 mg/kg (po), 5-24 h; format: functional, Urine
[19] = target: T1, Angiotensin-converting enzyme (Oryctolagus cuniculus); assay: In vivo inhibition of angiotensin I converting enzyme (ACE) in rabbit lung after (ip) administration of a dose of 10(mg/kg); format: organism-based
[20] = target: T1, Angiotensin-converting enzyme (Oryctolagus cuniculus); assay: Time during which angiotensin I converting enzyme inhibition is greater than or equa to 30% in rabbit lung; format: functional, tissue-based
[21] = target: T1, Angiotensin-converting enzyme (Oryctolagus cuniculus); assay: In vivo inhibition of angiotensin I converting enzyme (ACE) in rabbit lung after (iv) administration of a dose of 10(mg/kg); format: organism-based
[22] = test system: Rattus norvegicus; assay: Percent change in K+ in fasted rats at the dose of 25 mg/kg (iv), 0-5 h; format: functional
[23] = test system: Rattus norvegicus; assay: Percent change in K+ in fasted rats at the dose of 25 mg/kg (iv), 5-24 h; format: functional
[24] = test system: Rattus norvegicus; assay: Percent change in Na+ in fasted rats at the dose of 25 mg/kg (iv), 0-5 h; format: functional
[25] = test system: Rattus norvegicus; assay: Antihypertensive activity was determined in spontaneously hypertensive rat at a dose of 100 mg/kg(ip) administration; format: functional
[26] = test system: Rattus norvegicus; assay: Percent change in Na+in fasted rats at the dose of 25 mg/kg (iv), 5-24 h; format: functional
[27] = test system: Rattus norvegicus; assay: Percent change in urinary volume in fasted rats at the dose of 25 mg/kg (iv), 0-5 h; format: functional, Urine
[28] = test system: Rattus norvegicus; assay: Percent change in urinary volume in fasted rats at the dose of 25 mg/kg (iv), 5-24 h; format: functional, Urine
[29] = test system: Rattus norvegicus; assay: Time duration was determined for the actioni (determination of MAP in ip administration) in rat; format: functional
[30] = species on record: Rattus norvegicus; assay: The onset hour was determined in rat; format: functional
[31] = test system: Rattus norvegicus; assay: Percent change in K+ in fasted rats at the dose of 30 mg/kg (iv), 0-5 h; format: functional
[32] = test system: Rattus norvegicus; assay: Percent change in Na+ in fasted rats at the dose of 30 mg/kg (iv), 0-5 h; format: functional
[33] = test system: Rattus norvegicus; assay: Percent change in urinary volume in fasted rats at the dose of 30 mg/kg (iv), 0-5 h; format: functional, Urine
[34] = test system: Rattus norvegicus; assay: Time duration was determined for the actioni (determination of MAP in case of oral administration) in rat; format: functional
[35] = target: T1, Angiotensin-converting enzyme (Oryctolagus cuniculus); assay: In vivo inhibition of angiotensin I converting enzyme (ACE) in rabbit lung at the dose of 10(mg/kg), po; format: organism-based
[36] = test system: Rattus norvegicus; assay: Antihypertensive activity was determined in spontaneously hypertensive rat at a dose of 100 mg/kg(po) administration; format: functional; conditions: 100 mg/kg
[37] = target: T1, Angiotensin-converting enzyme (Oryctolagus cuniculus); assay: In vivo inhibition of Angiotensin I converting enzyme in rabbit lung after (po) administration of a dose of 10(mg/kg); format: organism-based
[38] = target: T1, Angiotensin-converting enzyme (Oryctolagus cuniculus); conditions: Lung

Time to max. inhibition [1]: 0.3 h
inhibition [2]: 85%
IC50 [3]: 26 nM
inhibition [4]: 52%
Duration [5]: 3 h
Time to max. inhibition [6]: 0.3 h
Duration [7]: 0 h
SMILES: C[C@H](N[C@@H](CCc1ccccc1)C(=O)O)C(=O)N1CC(NNC(=O)c2ccc(Cl)c(S(N)(=O)=O)c2)C[C@H]1C(=O)O (stereo not given in full)

Time to max. inhibition [8]: 0.3 h
Time to max. inhibition [9]: 0.3 h
IC50 [10]: 8 nM
inhibition [11]: 44%
inhibition [19]: 96%
SMILES: C[C@H](N[C@@H](CCc1ccccc1)C(=O)O)C(=O)N1C(c2ccc(Cl)c(S(N)(=O)=O)c2)SC[C@H]1C(=O)O (stereo not given in full)
Change [12]: inactive
Change [13]: 0%
Change [14]: -45%
Change [15]: 0%
Change [16]: -22%
Change [17]: -43%
Change [18]: -42%

Time to max. inhibition [8]: 0.3 h
Duration [20]: 1.25 h
inhibition [21]: 78%
SMILES: C[C@H](N[C@@H](CCc1ccccc1)C(=O)O)C(=O)N1C[C@@H](NS(=O)(=O)c2cc3c(cc2Cl)NC=NS3(=O)=O)C[C@H]1C(=O)O
Change [22]: 40%
Change [23]: 67%
Change [24]: 0%
Change in MAP [25]: -11%
Change [26]: 0%
Change [27]: 0%
Change [28]: 61%
Duration [29]: 3 h
Onset [30]: <0.25 h

Time to max. inhibition [8]: 2.7 h and 3 h
Duration [20]: > 4 h and 3.7 h
IC50 [10]: 18 nM
inhibition [21]: 96%
inhibition [35]: 37%
SMILES: C[C@H](N[C@@H](CCc1ccccc1)C(=O)O)C(=O)N1CC(N(C)CCC2Nc3cc(Cl)c(S(N)(=O)=O)cc3S(=O)(=O)N2)C[C@H]1C(=O)O.Cl.Cl (stereo not given in full)
Change [13]: 40%
Change [31]: 0%
Change [32]: 0%
Change [15]: 36%
Change [17]: 0%
Change [33]: 0%
Duration [34]: >42 h
Duration [29]: >24 h
Onset [30]: 0.5 h
Change in MAP [36]: -20% and -22%

Time to max. inhibition [1]: 0.7 h
inhibition [37]: 69%
Duration [38]: 2 h
SMILES: C[C@H](CS)C(=O)N1CCC[C@H]1C(=O)O

IC50 [10]: 23 nM
SMILES: C[C@H](N[C@@H](CCc1ccccc1)C(=O)O)C(=O)N1C[C@@H](NS(=O)(=O)c2cc3c(cc2Cl)N=CNS3(=O)=O)C[C@H]1C(=O)O

Source: ChEMBL document CHEMBL1124790, “Angiotensin converting enzyme inhibitors. 10. Aryl sulfonamide substituted N-[1-carboxy-3-phenylpropyl]-L-alanyl-L-proline derivatives as novel antihypertensives” (J Med Chem, 1990)
